test: recombinant barcode read abundance after kanamycin selection (control-corrected) (log10(CPM+1)); higher = more efficient recombination; sequences stand for … in AGTGCAGAGAAAATCGGCCAGTTTTCTCTGCCTGCAGTCCGCATGCCGT…AGATTTATGCAGCGGACTGCCTTTCTCCCAAAGTGATAAACCGGACAGTATCATGGACCGGTTTTCCCGGTAATCCGTATTTGCAAGGTTGGTTTCACT; site = the 11-nt target
Summary of the method: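 Duplicate cultures were plated either on chloramphenicol/ampicillin LB agar, serving as control, or on chloramphenicol/ampicillin/kanamycin with 0.1 mM IPTG. These came from a pooled E. coli library co-electroporated with a donor plasmid, each member pairing a target with an IS621 bridge RNA target-binding loop. Recombination efficiency equals averaged, control-corrected counts per million of recombinant-junction barcodes. It is listed as log10(CPM+1).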
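Note: IS621 recombinase and bridge RNA in Escherichia coli cells.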

| Sequence | recombinant barcode read abundance (log10) |
| --- | --- |
| GACGTAGCTTGGGTTCTAACCTGTTGCCT (site GACGTAGCTAG) | 1.6 |
| GACGTAGCTTGGGTTCTAACCTGTTGCCT (site GCCGTAGCTAG) | 0.083 |
| GACGTAGCTTGGGTTCTAACCTGTTGCCT (site GGCGTAGCTAG) | 0.52 |
| GACGTAGCTTGGGTTCTAACCTGTTGCCT (site GTCGTAGCTAG) | 0.279 |
| GACGTTGCTTGGGTTCTAACCTGTTGCCT (site GACGTTGCTAG) | 1.32 |
| GACGTTGCTTGGGTTCTAACCTGTTGCCT (site GACTTTACTAG) | 0.102 |
| GACTACCCTTGGGTTCTAACCTGTTGCCT (site ATGCTGTCTTA) | 0.0344 |
| GACTACCCTTGGGTTCTAACCTGTTGCCT (site GACTACCCTAG) | 2.2 |
| GACTCCGCTTGGGTTCTAACCTGTTGCCT (site GACTCCGCTAG) | 0.876 |
| GACTCCGCTTGGGTTCTAACCTGTTGCCT (site TACTCCGCTAG) | 0.692 |
| GACTCGACTTGGGTTCTAACCTGTTGCTT (site GAATCAACTAA) | 0.122 |
| GACTCGACTTGGGTTCTAACCTGTTGCTT (site GACTCGACTAA) | 0.395 |
| GACTCTCCTTGGGTTCTAACCTGTTGCTT (site GACTCTCCTAA) | 1.53 |
| GACTCTCCTTGGGTTCTAACCTGTTGCTT (site GACTCTCCTAC) | 0.0892 |
| GACTCTCCTTGGGTTCTAACCTGTTGCTT (site GACTCTCCTAG) | 0.029 |
| GACTCTCCTTGGGTTCTAACCTGTTGCTT (site GACTCTCCTAT) | 0.241 |
| GACTGGTCTTGGGTTCTAACCTGTTGCAT (site GACTGGTCTAG) | 0.969 |
| GACTGGTCTTGGGTTCTAACCTGTTGCAT (site GACTGGTCTAT) | 1.6 |
| GACTGGTCTTGGGTTCTAACCTGTTGCCT (site GACTGGTCTAG) | 1.45 |
| GACTGGTCTTGGGTTCTAACCTGTTGCCT (site GACTGGTCTAT) | 0.364 |
| GACTTACCTTGGGTTCTAACCTGTTGCCT (site GACATACCTAG) | 0.134 |
| GACTTACCTTGGGTTCTAACCTGTTGCCT (site GACCTACCTAG) | 1.43 |
| GACTTACCTTGGGTTCTAACCTGTTGCCT (site GACGTACCTAG) | 0.111 |
| GACTTACCTTGGGTTCTAACCTGTTGCCT (site GACTTACCTAG) | 0.843 |
| GACTTGCCTTGGGTTCTAACCTGTTGCAT (site GACTTACCTAT) | 0.0511 |
| GACTTGCCTTGGGTTCTAACCTGTTGCAT (site GACTTCCCTAT) | 0.113 |

| Sequence | recombinant barcode read abundance (log10) |
| --- | --- |
| GACTTGCCTTGGGTTCTAACCTGTTGCAT (site GACTTGCCTAT) | 0.313 |
| GACTTGCCTTGGGTTCTAACCTGTTGCAT (site GACTTTCCTAT) | 0.813 |
| GAGAAGACTTGGGTTCTAACCTGTTGCGT (site ACTCGTCCTTA) | 0.118 |
| GAGAAGACTTGGGTTCTAACCTGTTGCGT (site GAGAAGACTAC) | 2.56 |
| GAGACATCTTGGGTTCTAACCTGTTGCCT (site GAGAAATCTAG) | 0.11 |
| GAGACATCTTGGGTTCTAACCTGTTGCCT (site GAGACATCTAG) | 0.732 |
| GAGACATCTTGGGTTCTAACCTGTTGCCT (site GAGAGATCTAG) | 0.463 |
| GAGACATCTTGGGTTCTAACCTGTTGCCT (site GAGATATCTAG) | 0.206 |
| GAGAGAACTTGGGTTCTAACCTGTTGCCT (site CCATAGGCTCA) | 0.0856 |
| GAGAGAACTTGGGTTCTAACCTGTTGCCT (site GAGAGAACTAG) | 1.51 |
| GAGAGGTCTTGGGTTCTAACCTGTTGCGT (site GAGAGGTCTAA) | 0.502 |
| GAGAGGTCTTGGGTTCTAACCTGTTGCGT (site GAGAGGTCTAC) | 2.5 |
| GAGAGGTCTTGGGTTCTAACCTGTTGCGT (site GAGAGGTCTAG) | 0.613 |
| GAGAGGTCTTGGGTTCTAACCTGTTGCGT (site GAGAGGTCTAT) | 1.53 |
| GAGAGTCCTTGGGTTCTAACCTGTTGCCA (site ATTGAGACTAA) | 0.281 |
| GAGAGTCCTTGGGTTCTAACCTGTTGCCA (site GAGAGTCCTTG) | 1.24 |
| GAGATTCCTTGGGTTCTAACCTGTTGCCT (site CAGATTCCTAG) | 0.0463 |
| GAGATTCCTTGGGTTCTAACCTGTTGCCT (site GAGATTCCTAG) | 0.399 |
| GAGCAAACTTGGGTTCTAACCTGTTGCCT (site GAGCAAACTAG) | 1.2 |
| GAGCAAACTTGGGTTCTAACCTGTTGCCT (site GATCAATCTAG) | 0.16 |
| GAGCATACTTGGGTTCTAACCTGTTGCCT (site GAGCATACTAG) | 1.62 |
| GAGCATACTTGGGTTCTAACCTGTTGCCT (site GAGGGTACTAG) | 0.0325 |
| GAGCCACCTTGGGTTCTAACCTGTTGCCT (site AAGCCACCTAG) | 0.868 |
| GAGCCACCTTGGGTTCTAACCTGTTGCCT (site CAGCCACCTAG) | 0.236 |
| GAGCCACCTTGGGTTCTAACCTGTTGCCT (site GAGCCACCTAG) | 1.48 |
| GAGCCACCTTGGGTTCTAACCTGTTGCCT (site TAGCCACCTAG) | 0.911 |

| Sequence | recombinant barcode read abundance (log10) |
| --- | --- |
| GAGCCGGCTTGGGTTCTAACCTGTTGCTT (site GAGACGGCTAA) | 0.0584 |
| GAGCCGGCTTGGGTTCTAACCTGTTGCTT (site GAGCCGGCTAA) | 1.32 |
| GAGCCGGCTTGGGTTCTAACCTGTTGCTT (site GAGGCGGCTAA) | 0.3 |
| GAGCCGGCTTGGGTTCTAACCTGTTGCTT (site GAGTCGGCTAA) | 0.337 |
| GAGCGAGCTTGGGTTCTAACCTGTTGCGG (site GAGCGAGCTCA) | 0.0195 |
| GAGCGAGCTTGGGTTCTAACCTGTTGCGG (site GAGCGAGCTCC) | 1.13 |
| GAGCGAGCTTGGGTTCTAACCTGTTGCGG (site GAGCGAGCTCG) | 0.196 |
| GAGCGAGCTTGGGTTCTAACCTGTTGCGG (site GAGCGAGCTCT) | 1.07 |
| GAGCGAGCTTGGGTTCTAACCTGTTGCTG (site GAGCGAGCTCA) | 1.5 |
| GAGCGAGCTTGGGTTCTAACCTGTTGCTG (site GAGCGAGCTCC) | 0.41 |
| GAGCGAGCTTGGGTTCTAACCTGTTGCTG (site GAGCGAGCTCG) | 0.529 |
| GAGCGAGCTTGGGTTCTAACCTGTTGCTG (site GAGCGAGCTCT) | 1.25 |
| GAGCGCTCTTGGGTTCTAACCTGTTGCAG (site GAGCGCTCTCT) | 1.42 |
| GAGCGCTCTTGGGTTCTAACCTGTTGCAG (site GAGTGCTCTCT) | 0.0694 |
| GAGCGTCCTTGGGTTCTAACCTGTTGCAG (site GAGCGTCCTCT) | 1.26 |
| GAGCGTCCTTGGGTTCTAACCTGTTGCAG (site GAGTTTCCTCT) | 0.0296 |
| GAGCGTCCTTGGGTTCTAACCTGTTGCCG (site CAGTGTCCTCG) | 0.0924 |
| GAGCGTCCTTGGGTTCTAACCTGTTGCCG (site GAGCGTCCTCG) | 0.739 |
| GAGCGTTCTTGGGTTCTAACCTGTTGCCT (site GAGCGCTCTCG) | 0.199 |
| GAGCGTTCTTGGGTTCTAACCTGTTGCCT (site GAGCGTTCTAG) | 1.47 |
| GAGCTACCTTGGGTTCTAACCTGTTGCCC (site GAGCTACCTAG) | 1.48 |
| GAGCTACCTTGGGTTCTAACCTGTTGCCC (site GAGCTACCTCG) | 0.199 |
| GAGCTACCTTGGGTTCTAACCTGTTGCCC (site GAGCTACCTGG) | 1.72 |
| GAGCTACCTTGGGTTCTAACCTGTTGCCC (site GAGCTACCTTG) | 0.85 |
| GAGCTAGCTTGGGTTCTAACCTGTTGCGT (site GAGCTAGCTAC) | 2.41 |
